Some targets named below: Melanocortin receptor 4 (Homo sapiens, UniProt P32245); D(1A) dopamine receptor (Homo sapiens, UniProt P21728); Mu-type opioid receptor (Homo sapiens, UniProt P35372).
Assay [1] deals with T1, 5-hydroxytryptamine receptor 1A (Homo sapiens, UniProt P08908).
T1 sequence (P08908 whole entry): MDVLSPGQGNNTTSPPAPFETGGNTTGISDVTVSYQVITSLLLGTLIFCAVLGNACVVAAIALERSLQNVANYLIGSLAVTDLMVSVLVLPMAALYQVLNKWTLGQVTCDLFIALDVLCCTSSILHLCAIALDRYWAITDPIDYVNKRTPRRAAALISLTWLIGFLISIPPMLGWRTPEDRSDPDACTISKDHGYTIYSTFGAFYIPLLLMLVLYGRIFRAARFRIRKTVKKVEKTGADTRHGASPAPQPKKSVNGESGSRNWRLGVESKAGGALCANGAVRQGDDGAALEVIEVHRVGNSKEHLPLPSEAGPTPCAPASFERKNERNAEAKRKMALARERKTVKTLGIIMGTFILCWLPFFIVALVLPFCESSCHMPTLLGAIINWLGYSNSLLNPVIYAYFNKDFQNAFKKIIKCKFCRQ

Assay [2] addresses T2, Alpha-1A adrenergic receptor (Homo sapiens, UniProt P35348).
T2 sequence (P35348 whole entry): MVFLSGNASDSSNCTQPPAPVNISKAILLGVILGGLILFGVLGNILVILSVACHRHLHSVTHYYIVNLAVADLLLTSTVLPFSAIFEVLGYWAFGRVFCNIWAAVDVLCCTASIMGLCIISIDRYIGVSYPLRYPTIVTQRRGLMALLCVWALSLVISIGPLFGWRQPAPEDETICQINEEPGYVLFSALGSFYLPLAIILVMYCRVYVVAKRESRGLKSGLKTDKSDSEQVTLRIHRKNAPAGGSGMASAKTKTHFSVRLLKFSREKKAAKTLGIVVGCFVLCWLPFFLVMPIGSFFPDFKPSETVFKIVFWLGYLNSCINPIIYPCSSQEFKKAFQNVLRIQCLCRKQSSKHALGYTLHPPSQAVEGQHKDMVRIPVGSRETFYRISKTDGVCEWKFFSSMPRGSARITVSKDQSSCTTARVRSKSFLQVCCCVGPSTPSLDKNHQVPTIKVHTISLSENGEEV
In kind it is functional, cell-based.

Assay [3] has as its target T2, Alpha-1A adrenergic receptor.
Assay [4] addresses 5-hydroxytryptamine receptor 2B (Homo sapiens, UniProt P41595).
Assay [5] deals with T3, Androgen receptor (Rattus norvegicus, UniProt P15207).
T3 sequence (P15207 whole entry): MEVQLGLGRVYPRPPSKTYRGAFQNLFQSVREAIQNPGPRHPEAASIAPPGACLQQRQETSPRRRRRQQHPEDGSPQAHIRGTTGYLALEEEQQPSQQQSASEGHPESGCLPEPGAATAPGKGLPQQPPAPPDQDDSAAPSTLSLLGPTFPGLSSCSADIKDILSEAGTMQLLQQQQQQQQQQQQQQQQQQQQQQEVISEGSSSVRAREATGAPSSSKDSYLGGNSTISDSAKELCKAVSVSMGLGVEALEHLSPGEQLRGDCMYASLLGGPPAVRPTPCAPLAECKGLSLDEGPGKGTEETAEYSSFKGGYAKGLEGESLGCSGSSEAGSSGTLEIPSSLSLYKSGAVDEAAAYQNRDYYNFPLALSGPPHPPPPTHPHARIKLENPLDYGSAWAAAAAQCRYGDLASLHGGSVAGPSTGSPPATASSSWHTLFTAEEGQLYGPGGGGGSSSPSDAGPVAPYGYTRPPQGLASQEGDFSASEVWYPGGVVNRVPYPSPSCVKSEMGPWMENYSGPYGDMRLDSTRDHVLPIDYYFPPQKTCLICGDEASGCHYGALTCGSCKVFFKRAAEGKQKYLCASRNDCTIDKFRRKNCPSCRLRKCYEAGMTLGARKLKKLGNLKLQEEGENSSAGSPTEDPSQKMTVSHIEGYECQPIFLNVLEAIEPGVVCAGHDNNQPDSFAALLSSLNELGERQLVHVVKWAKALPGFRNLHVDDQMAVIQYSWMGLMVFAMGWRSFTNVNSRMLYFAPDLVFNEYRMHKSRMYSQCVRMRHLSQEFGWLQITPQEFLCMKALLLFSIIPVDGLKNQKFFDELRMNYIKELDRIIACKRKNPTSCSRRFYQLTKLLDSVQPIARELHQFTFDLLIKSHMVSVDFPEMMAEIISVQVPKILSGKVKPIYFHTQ
Format: functional.

The target in assay [6] is T3, Androgen receptor. In kind it is functional. This is another data set of the same source.
Assay [7] deals with 5-hydroxytryptamine receptor 2A (Homo sapiens, UniProt P28223).

A value given as a limit tells only on which side of the number the result lay.
Also: assay procedure not described here.

Melanocortin receptor 4, sequence (P32245 whole entry): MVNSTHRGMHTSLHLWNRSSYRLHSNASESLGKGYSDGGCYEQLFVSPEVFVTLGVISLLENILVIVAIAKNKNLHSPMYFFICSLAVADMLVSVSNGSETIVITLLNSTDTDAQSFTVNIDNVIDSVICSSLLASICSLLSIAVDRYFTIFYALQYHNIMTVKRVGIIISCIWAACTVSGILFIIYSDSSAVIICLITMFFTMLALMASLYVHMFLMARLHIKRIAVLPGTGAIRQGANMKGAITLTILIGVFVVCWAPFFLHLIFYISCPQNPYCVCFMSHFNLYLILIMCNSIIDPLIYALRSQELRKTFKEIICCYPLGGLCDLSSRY
5-hydroxytryptamine receptor 2A, sequence (P28223 whole entry): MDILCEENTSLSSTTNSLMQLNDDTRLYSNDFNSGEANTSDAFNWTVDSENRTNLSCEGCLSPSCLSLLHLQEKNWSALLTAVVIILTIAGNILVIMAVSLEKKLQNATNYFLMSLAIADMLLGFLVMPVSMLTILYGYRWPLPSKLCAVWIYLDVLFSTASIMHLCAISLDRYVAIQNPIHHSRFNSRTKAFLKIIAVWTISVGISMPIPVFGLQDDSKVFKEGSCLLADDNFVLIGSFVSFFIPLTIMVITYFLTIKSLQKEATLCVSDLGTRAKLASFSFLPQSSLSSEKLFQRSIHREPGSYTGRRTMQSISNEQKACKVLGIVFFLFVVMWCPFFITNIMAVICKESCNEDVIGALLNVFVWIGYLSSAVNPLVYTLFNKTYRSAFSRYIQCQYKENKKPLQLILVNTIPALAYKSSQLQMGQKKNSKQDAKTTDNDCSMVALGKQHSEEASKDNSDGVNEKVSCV
D(1A) dopamine receptor, sequence (P21728 whole entry): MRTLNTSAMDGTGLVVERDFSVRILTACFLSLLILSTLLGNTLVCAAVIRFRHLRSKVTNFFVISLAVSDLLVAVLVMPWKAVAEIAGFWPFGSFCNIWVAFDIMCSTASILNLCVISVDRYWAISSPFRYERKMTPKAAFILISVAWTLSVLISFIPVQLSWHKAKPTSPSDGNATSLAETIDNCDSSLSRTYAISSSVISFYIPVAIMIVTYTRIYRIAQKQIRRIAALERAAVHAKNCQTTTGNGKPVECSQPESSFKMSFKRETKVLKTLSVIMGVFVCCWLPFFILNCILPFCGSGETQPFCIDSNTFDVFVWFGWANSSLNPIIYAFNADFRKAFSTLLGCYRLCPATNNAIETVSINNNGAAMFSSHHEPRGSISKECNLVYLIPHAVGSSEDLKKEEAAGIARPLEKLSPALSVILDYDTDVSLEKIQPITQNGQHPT
Mu-type opioid receptor, sequence (P35372 whole entry): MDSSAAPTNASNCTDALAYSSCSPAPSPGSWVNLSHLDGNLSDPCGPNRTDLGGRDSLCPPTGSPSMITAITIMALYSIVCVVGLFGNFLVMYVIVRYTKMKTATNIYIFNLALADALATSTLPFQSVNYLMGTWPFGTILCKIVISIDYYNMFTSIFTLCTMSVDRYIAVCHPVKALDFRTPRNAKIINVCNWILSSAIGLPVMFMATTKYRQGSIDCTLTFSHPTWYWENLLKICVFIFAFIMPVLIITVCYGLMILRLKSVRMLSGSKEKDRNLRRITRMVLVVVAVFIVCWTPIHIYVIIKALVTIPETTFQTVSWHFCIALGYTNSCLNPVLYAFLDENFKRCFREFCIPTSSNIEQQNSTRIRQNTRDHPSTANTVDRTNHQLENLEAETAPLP
5-hydroxytryptamine receptor 2B, sequence (P41595 whole entry): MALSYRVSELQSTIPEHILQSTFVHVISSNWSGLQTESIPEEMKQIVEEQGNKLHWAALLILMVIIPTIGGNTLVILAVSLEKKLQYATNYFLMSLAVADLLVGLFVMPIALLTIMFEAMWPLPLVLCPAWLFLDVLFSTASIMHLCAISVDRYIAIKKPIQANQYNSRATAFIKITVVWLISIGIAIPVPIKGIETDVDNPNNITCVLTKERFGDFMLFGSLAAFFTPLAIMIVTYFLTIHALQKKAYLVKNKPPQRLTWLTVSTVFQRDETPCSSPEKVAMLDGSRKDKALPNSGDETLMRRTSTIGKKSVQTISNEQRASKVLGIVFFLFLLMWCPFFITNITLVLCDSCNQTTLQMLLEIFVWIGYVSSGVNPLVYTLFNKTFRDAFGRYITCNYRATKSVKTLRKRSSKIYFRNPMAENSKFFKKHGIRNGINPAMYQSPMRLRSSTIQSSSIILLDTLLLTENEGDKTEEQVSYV

Take `COc1ccccc1OCCNCC(O)c1ccc(C)c(S(N)(=O)=O)c1` (stereo not given) [AMOSULALOL]: the half-maximal activity concentration (AC50) (as a rule, the concentration at which the activity in the assay is half-maximal) in assay [1] was 0.052 µM; in [2] it was 0.24 µM; in [3], 0.3 µM; in assay [4], more than 30 µM; at Androgen receptor [5], more than 30 µM; on Androgen receptor [6] it was more than 30 µM.
Turning to `Cc1cc(O)c(C(=O)N[C@@H](C(=O)N[C@@H]2C(=O)N3C(C(=O)O)=C(CSc4nnnn4C)CS[C@H]23)c2ccc(O)cc2)cn1` [CEFPIRAMIDE], the half-maximal activity concentration (AC50) (at Melanocortin receptor 4; in assay [3]; on Androgen receptor [5]; at Androgen receptor [6]) was more than 30 µM each time.
Take `CC(Oc1c(Cl)cccc1Cl)C1=NCCN1` (stereo not given) [LOFEXIDINE]: the AC50 in assay [1] is 0.29 µM; in assay [3], 0.803 µM; on Androgen receptor [5], more than 30 µM; at Androgen receptor [6] it was more than 30 µM.
For `CCN(CC)C(=O)N[C@H]1C[C@@H]2c3cccc4[nH]cc(c34)C[C@H]2N(C)C1` [TERGURIDE], the AC50 in assay [2] was 1.1 µM; at Androgen receptor [5], more than 30 µM; on Androgen receptor [6], more than 30 µM; at D(1A) dopamine receptor, 0.41 µM.
On to `CC(=O)O[C@H]1CC[C@@]2(C)C(=CC[C@@H]3[C@@H]2CC[C@]2(C)C(c4cccnc4)=CC[C@@H]32)C1` [ABIRATERONE ACETATE], for which the half-maximal activity concentration (AC50) in assay [1] was more than 10 µM; in assay [2], more than 30 µM; in assay [3] it was more than 10 µM; in assay [7] it was more than 10 µM; on Androgen receptor [5], more than 30 µM; at Mu-type opioid receptor it was more than 30 µM. The same compound registered an AC50 at Androgen receptor [6] of more than 30 µM.
